Data published in publication PMC8175350, “Drug repurposing screens identify chemical entities for the development of COVID-19 interventions” (Nature Communications, 2021).
Where “and” joins values, the source holds several entries; their conditions need not be identical. Identical values can stand only once. Like-named read-outs stand apart in the source and are kept apart here.

Columns and labels:
[1] = system: SARS-CoV-2; test: microbe, parasite or virus in culture; type: cell-based; conditions: for %infected: replicate wells n=1-3
[2] = Uninfected HeLa-ACE2 24 h live/dead cytotoxicity counter screen; type: cell-based, human; conditions: human, uninfected HeLa-ACE2 cells
[3] = system: HeLa-ACE2 cells; test: as above; type: cell-based, human; conditions: for cytotox: HeLa-ACE2, replicate wells n=1-3
[4] = system: SARS-CoV-2; test: microbe, parasite or virus in culture; type: cell-based; conditions: for %infected: Calu-3, replicate wells n=1-3; for EC50: read-out: Calu-3 SARS-CoV-2 EC50
[5] = system: SARS-CoV-2; test: microbe, parasite or virus in culture; type: cell-based; conditions: 10 µM after 1 h infection; 4:00:00 post infection

In the case of CCC(CC)COC(=O)[C@H](C)N[P@](=O)(OC[C@H]1O[C@@](C#N)(c2ccc3c(N)ncnn23)[C@H](O)[C@@H]1O)Oc1ccccc1 [Remdesivir], the “increase in EC50 from MOI = 0.09 to MOI = 2.2” value ([1]; HeLa-ACE2) is reported as 2.7 fold, the EC50 ([1]; HeLa-ACE2, individual values of 9 independent experiments, read-out: EC50 (µM), Fig 1c) is reported as 191 nM and 83 nM and 141 nM and 130 nM and 138 nM (2×) and the “%infected” value ([1]; HeLa-ACE2, concentration log[M] -5.61909) is reported as -99.4999% and -95.8005% and -94.7545% and -97.535% and -100.056% and -100.005% and -100.014% and -99.12% and -100%. For the same compound, the “%infected” value ([1]; HeLa-ACE2, concentration log[M] -6.09621) was -99.2124% and -98.9733% and -96.3176% and -99.76% and -100.229% and -100.013%, the “%infected” value ([1]; HeLa-ACE2, concentration log[M] -8.48182) was 18.582% and -4.2719% and -2.02% and 15.6179% and -5.577% and 7.137% and 7.4% and 8.398% and -2.488% and the “%infected” value ([1]; HeLa-ACE2, concentration log[M] -8.95894) was 3.102% and 6.636% and 1.634% and -11.6076% and 6.069% and -5.672% and -8.653%. The Emax ([1]; Severe acute respiratory syndrome coronavirus 2, HeLa-ACE2, 24 h, curve plateau at infinite concentration, read-out: HeLa-ACE2 CoV-2 Sinf Average) was 100%, the EC50 ([1]; Severe acute respiratory syndrome coronavirus 2, HeLa-ACE2, HeLa-ACE2, MOI 0.51, read-out: EC50) was 126 nM and the EC50 ([1]; Severe acute respiratory syndrome coronavirus 2, HeLa-ACE2, HeLa-ACE2, MOI 1.1, read-out: EC50) was 145 nM. The EC50 ([1]; Severe acute respiratory syndrome coronavirus 2, HeLa-ACE2, HeLa-ACE2, MOI 2.2, read-out: EC50) was 223 nM, the EC50 ([1]; Severe acute respiratory syndrome coronavirus 2, HeLa-ACE2, reconfirmed hits, read-out: HeLa-ACE2 SARS-CoV-2 EC50) was 127 nM and the EC50 ([1]; Severe acute respiratory syndrome coronavirus 2, HeLa-ACE2, value in brackets*: remdesivir control, read-out: HeLa-ACE2 SARS-CoV-2 EC50) was 123 nM. The CC50 at 24 h ([2]; geomean, read-out: uninfected HeLa-ACE2 cytotoxicity CC50) was > 9670 nM, the CC50 at 24 h ([2]; reconfirmed hits, read-out: HeLa-ACE2 Uninf. cells CC50) was 9970 nM and the CC50 at 24 h ([2]; value in brackets*: remdesivir control, read-out: HeLa-ACE2 Uninf. cells CC50) was 9670 nM. For the same compound, the CC50 at 24 h ([2]; read-out: HeLa-ACE2 uninfected cytotoxicity CC50 GeoMean) was 9970 nM, the cytotox ([3]; concentration log[M] -5) was -48.6076 and -58.6844 and -51.3625 and -48.213 and -50.9294 and -56.7143 and -47.8141 and -43.3369 and -36.9299 and the cytotox ([3]; concentration log[M] -5.47712) was -19.1561 and -17.8418 and -30.9661 and -14.3691 and -23.5688 and -36.4286 and -15.3846 and -28.169 and -29.0323. The cytotox ([3]; concentration log[M] -5.95424) was 6.751 and 11.4789 and 9.414 and -2.699 and 2.9 and 4.429 and 8.301 and 5.85 and 4.672, the cytotox ([3]; concentration log[M] -6.43136) was -5.57 and 5.718 and -0.9083 and 5.1787 and 2.305 and -8.143 and -9.851 and -10.8342 and 4.561 and the cytotox ([3]; concentration log[M] -6.90849) was 2.8692 and 11.5649 and -1.239 and 5.033 and 15.0929 and 0 and 8.342. For the same compound, the cytotox ([3]; concentration log[M] -7.38561) was -3.882 and -2.966 and 0.578 and 12.6185 and 0.223 and 8.571 and 4.759 and -6.934 and 4.338, the cytotox ([3]; concentration log[M] -7.86273) was 4.3038 and -8.727 and 10.4046 and -9.847 and -4.535 and -6.857 and 3.25 and -6.674 and the cytotox ([3]; concentration log[M] -8.33985) was 0.2532 and 0.129 and -1.817 and 2.115 and -17.6208 and -2.857 and -8.744 and 4.117 and 1.669. The “HeLa-ACE2 uninfected cytotoxicity Sinf Average” value ([3]; curve plateau at infinite concentration) was -86%, the “%infected” value ([4]; concentration log[M] -5) was -100% and -99.897% and -100.088% and -98.7564% and -99.5799% and -100.046% and -100.098% and -100.338% and -99.9472% and the “%infected” value ([4]; concentration log[M] -5.47712) was -99.1601% and -98.4923% and -99.234% and -99.2295% and -99.4568% and -99.7507% and -99.3361% and -99.5394% and -98.7541%. The “%infected” value ([4]; concentration log[M] -5.95424) was -89.5337% and -93.208% and -92.5628% and -91.8668% and -95.3312% and -93.4282% and -90.0849% and -90.1886% and -82.0673%, the “%infected” value ([4]; concentration log[M] -6.43136) was -39.9603% and -66.0539% and -61.9632% and -57.8703% and -42.505% and -37.1362% and -41.0562% and -18.9015% and -48.5538% and the “%infected” value ([4]; concentration log[M] -6.90849) was 15.313% and 14.726% and -3.639% and 30.6752% and -6.396% and 10.9651% and -1.713% and -1.879%. For the same compound, the “%infected” value ([4]; concentration log[M] -7.38561) was 1.995% and -3.779% and 16.4097% and -7.2105% and 10.833% and 28.7058% and 9.608% and 17.5254%, the “%infected” value ([4]; concentration log[M] -7.86273) was 12.1902% and -3.292% and 25.9949% and 14.3562% and 4.371% and -33.8895% and 13.327% and 8.365% and 21.3189% and the “%infected” value ([4]; concentration log[M] -8.33985) was -5.4528% and 0% and -9.776% and -9.382% and 5.183% and 10.3172% and 15.4186% and 28.7222%. It also gave an Emax ([4]; Severe acute respiratory syndrome coronavirus 2, Calu-3, 48 h, curve plateau at infinite concentration, read-out: Calu-3 CoV-2 Sinf Average) of 102%, an EC50 ([4]; Severe acute respiratory syndrome coronavirus 2, Calu-3, reconfirmed hits) of 606 nM and an EC50 ([4]; Severe acute respiratory syndrome coronavirus 2, Calu-3, value in brackets*: remdesivir control) of 444 nM. The “SARS-CoV-2 % infected cells” value [5] was 0.0558% and 0.1777% and 0.2107%.
